The test system of the assay is P. berghei ookinete development. Conditions: for % inhibition, Replicate A / % inhibition, Replicate B: primary screen at 1 μM.

Each structure is given as a SMILES string.

As to `Cn1ncc2ccc(Nc3nccc(-c4ccc5c(c4)c(N)nn5C)n3)cc21` [TCMDC-137049], the “% inhibition, Replicate A” value is 55.92% and the “% inhibition, Replicate B” value amounted to 51.61%.

Turning to `Cc1nc2ccccc2c(O)c1-c1ccc(Cl)cc1` [TCMDC-137172], the “% inhibition, Replicate A” value was 27.10% and the “% inhibition, Replicate B” value came to 52.76%.

As for `Cc1nc2nc(N)nc(N)c2c(C)c1Cc1ccccc1I.Cl` [TCMDC-137243], the “% inhibition, Replicate A” value is recorded as 8.94% and the “% inhibition, Replicate B” value came to 52.96%.

`CCc1cc2c3c(N)nc(N)nc3ccc2n1C(CC)CC` [TCMDC-137309]: the “% inhibition, Replicate A” value was 48.79% and the “% inhibition, Replicate B” value was 56.84%.

Turning to `CC(C)n1c(C(C)(C)C)cc2c3c(N)nc(N)nc3ccc21` [TCMDC-137311], the “% inhibition, Replicate A” value is 95.58% and the “% inhibition, Replicate B” value came out at 90.85%. The IC50 (as a rule, the concentration that inhibits the measured activity by half) (read-out: Pb Ookinete development assay IC50, dose response confirmation) is 634 nM.

Consider `CNCCN(C)C(=O)Oc1c(Cl)c(C)nc(C)c1-c1ccc(Oc2ccc(OC(F)(F)F)cc2)cc1.Cl` [TCMDC-137384], for which the “% inhibition, Replicate A” value was found to be 31.42% and the “% inhibition, Replicate B” value was found to be 56.87%.

With `Cc1[nH]c(C)c(-c2ccc(Oc3cccc(Cl)c3)cc2)c(=O)c1Cl` [TCMDC-137395], the “% inhibition, Replicate A” value is listed as 115.83% and the “% inhibition, Replicate B” value was determined as 119.38%.

On to `Cc1[nH]c(C)c(-c2ccc(S(=O)(=O)c3ccc(Cl)cc3)cc2)c(=O)c1Cl` [TCMDC-137412], for which the “% inhibition, Replicate A” value worked out at 78.54% and the “% inhibition, Replicate B” value turned out to be 115.81%.

As for `Cc1nc(C)c(-c2ccc(C(=O)c3ccccc3)cc2)c(O)c1Br` [TCMDC-137419], the “% inhibition, Replicate A” value was found to be 112.31% and the “% inhibition, Replicate B” value is 126.66%.

For `CCN1CCN(CCCNc2c3ccc(Cl)cc3nc3ccc(OC)cc23)CC1.Cl` [TCMDC-137586], the “% inhibition, Replicate A” value is 79.33% and the “% inhibition, Replicate B” value is recorded as 90.04%.

Regarding `CC=Cc1cc(Cc2c[nH]c(=N)[nH]c2=N)cc(CCC)c1OC` [TCMDC-137634], the “% inhibition, Replicate A” value worked out at 54.07% and the “% inhibition, Replicate B” value was 40.96%.

On to `Cl.N=C(N)NN=Cc1cc2ccccc2c2ccccc12` [TCMDC-137671], for which the “% inhibition, Replicate A” value is given as 63.22% and the “% inhibition, Replicate B” value came out at 44.77%.

As to `CCCCCc1cnc2nc(N)nc(N)c2c1C.Cl` [TCMDC-137717], the “% inhibition, Replicate A” value came to 60.03% and the “% inhibition, Replicate B” value was determined as 27.06%.

Consider `CC(CO)(CO)NCc1cc2ccc3ccsc3c2c2ccccc12.CS(=O)(=O)O` [TCMDC-137753], for which the “% inhibition, Replicate A” value was found to be 48.80% and the “% inhibition, Replicate B” value was determined as 68.87%.

In the case of `CC(C)(C)c1ccc(Cc2cccc3nc(N)nc(N)c23)cc1` [TCMDC-137821], the “% inhibition, Replicate A” value came out at 61.67% and the “% inhibition, Replicate B” value is listed as 24.79%.

In the case of `CC(C)n1ncc2c3c(N)nc(N)nc3ccc21` [TCMDC-137866], the “% inhibition, Replicate A” value is listed as 87.47% and the “% inhibition, Replicate B” value stood at 39.71%.

Consider `Cl.N=C(N)NN=Cc1c2ccccc2c(Cl)c2c(Cl)cccc12` [TCMDC-137898], for which the “% inhibition, Replicate A” value is 66.37% and the “% inhibition, Replicate B” value is 24.36%.

For `Cc1nc(N)nc(N)c1CCCOc1ccccc1Cl` [TCMDC-137929], the “% inhibition, Replicate A” value was 38.99% and the “% inhibition, Replicate B” value is recorded as 55.23%.

As to `CCCc1cc2c3c(N)nc(N)nc3ccc2n1CC` [TCMDC-137946], the “% inhibition, Replicate A” value was determined as 61.03% and the “% inhibition, Replicate B” value came out at 76.85%.

Regarding `CCCC(CC)n1ccc2c3c(N)nc(N)nc3ccc21.CS(=O)(=O)O` (stereo not shown) [TCMDC-137948], the “% inhibition, Replicate A” value is 49.24% and the “% inhibition, Replicate B” value stood at 73.56%.

Consider `Cc1cc2c3c(N)nc(N)nc3ccc2n1C` [TCMDC-137957], for which the “% inhibition, Replicate A” value is given as 66.89% and the “% inhibition, Replicate B” value is listed as 77.62%.

For the compound `Cl.Nc1nc(N)c2c(ccc3nn(Cc4cccnc4)cc32)n1` [TCMDC-137968], the “% inhibition, Replicate A” value is 30.53% and the “% inhibition, Replicate B” value was determined as 62.42%.

With `COc1ccc(O)c(Cc2cnc3nc(N)nc(N)c3c2C)c1.O=C(O)C(F)(F)F` [TCMDC-137998], the “% inhibition, Replicate A” value is 11.48% and the “% inhibition, Replicate B” value is listed as 55.44%.

As to `COc1ccc2nc3cc(Cl)ccc3c(Nc3ccc(C(=O)O)cc3)c2c1.Cl` [TCMDC-138029], the “% inhibition, Replicate A” value is recorded as 92.30% and the “% inhibition, Replicate B” value came to 90.70%.

As for `C=CCc1cc(Cc2cnc(N)nc2N)cc(CCC)c1OC` [TCMDC-138039], the “% inhibition, Replicate A” value came to 8.79% and the “% inhibition, Replicate B” value was 53.34%.

On to `CCOC(=O)c1cc2c(CCN3C(=O)c4ccccc4C3=O)cn(C)c2cc1-c1ccncc1` [TCMDC-138099], for which the “% inhibition, Replicate A” value is 54.94% and the “% inhibition, Replicate B” value worked out at 51.34%.

Take `CCC[C@@H]([C@@H](CC1CCCCC1)C(=O)N[C@H](C(=O)Nc1nccs1)C(C)(C)SC)N(O)C=O` [TCMDC-138113]: the “% inhibition, Replicate A” value was found to be 7.94% and the “% inhibition, Replicate B” value came out at 61.12%.

For the compound `COc1cc(Cc2cnc(N)nc2N)ccc1OCc1ccc(-c2csnn2)cc1` [TCMDC-138683], the “% inhibition, Replicate A” value was 55.66% and the “% inhibition, Replicate B” value was found to be 28.96%.

Consider `COc1cc(-c2cnc(N)c(-c3nc4ccccc4[nH]3)c2)cc(OC)c1OC.Cl` [TCMDC-138793], for which the “% inhibition, Replicate A” value was 57.35% and the “% inhibition, Replicate B” value is 34.54%.

Take `COc1ccc2c(=O)c(-c3ccc(OC(F)(F)F)cc3)c(C)[nH]c2c1` [TCMDC-138811]: the “% inhibition, Replicate A” value was 34.78% and the “% inhibition, Replicate B” value is reported as 69.73%.

`COc1ccc2nccc(C(=O)NC3CCC(CCN4CCc5cc(C#N)ccc5C4)CC3)c2c1.Cl` (stereo not shown) [TCMDC-139240]: the “% inhibition, Replicate A” value was determined as 53.92% and the “% inhibition, Replicate B” value was determined as 18.69%.

As to `Cc1cc(-c2ccc(NC(=O)Nc3ccc4nccc(N5CCN(C)CC5)c4c3)cc2C)cc(C)n1.Cl` [TCMDC-139355], the “% inhibition, Replicate A” value came out at 53.36% and the “% inhibition, Replicate B” value came to 17.60%.

Turning to `CC(=O)c1c[nH]c2ccc(/C=C/C(=O)NC3CCC(CCN4CCc5ccc(C#N)cc5CC4)CC3)cc12.Cl` (stereo not shown) [TCMDC-139781], the “% inhibition, Replicate A” value turned out to be 63.32% and the “% inhibition, Replicate B” value worked out at 35.61%.

As to `O=c1cc(NCCCN(Cc2cc3c(Cl)cc(Cl)cc3[nH]2)Cc2cc3c(Cl)cc(Cl)cc3[nH]2)[nH]c2ccccc12` [TCMDC-139849], the “% inhibition, Replicate A” value was determined as 64.98% and the “% inhibition, Replicate B” value was found to be 20.87%.

As to `O=C(NCCCN1CCN(c2cccc(Cl)c2)CC1)c1ccc(-c2nc3cc(Cl)c(Cl)cc3[nH]2)cc1` [TCMDC-140077], the “% inhibition, Replicate A” value came out at 61.66% and the “% inhibition, Replicate B” value is 14.32%.

In the case of `CN(C)CCCOc1ccccc1CN1CC[C@H](NC(=O)c2ccc(Cl)c(Cl)c2)C1.O=C(O)C(F)(F)F` [TCMDC-140310], the “% inhibition, Replicate A” value is given as -10.45% and the “% inhibition, Replicate B” value is listed as 74.47%.

In the case of `COc1cc(NCCCNC(=O)c2cc3c(Cl)cc(Cl)cc3[nH]2)nc2ccccc12` [TCMDC-140360], the “% inhibition, Replicate A” value came to 57.79% and the “% inhibition, Replicate B” value is listed as 39.97%.

For `Cc1cc(CNCCCCCCNCc2ccc(Cl)cc2)ccc1O` [TCMDC-140414], the “% inhibition, Replicate A” value came out at 6.85% and the “% inhibition, Replicate B” value stood at 50.55%.

`COc1ccc2nccc(NC(=O)N3CCC(NCc4cc5ccccc5[nH]4)CC3)c2n1.O=C(O)C(=O)O` [TCMDC-140671]: the “% inhibition, Replicate A” value is 55.02% and the “% inhibition, Replicate B” value is reported as 18.69%.

Turning to `Cc1c(CNCCCNc2cc(=O)c3ccccc3[nH]2)sc(-c2ccco2)c1Br.Cl` [TCMDC-141065], the “% inhibition, Replicate A” value is on record as 4.54% and the “% inhibition, Replicate B” value was 52.38%.

`O=C(N[C@H]1CCN(CCc2ccc(O[C@H]3CCNC3)cc2)C1)c1ccc(Cl)c(Cl)c1.O=C(O)C(F)(F)F` [TCMDC-141066]: the “% inhibition, Replicate A” value turned out to be 57.79% and the “% inhibition, Replicate B” value amounted to 22.51%.

In the case of `COc1ccc2nccc([C@@H](O)CN3CCC(NC(=O)Cc4cccc5c(Br)cccc45)CC3)c2c1` [TCMDC-141111], the “% inhibition, Replicate A” value is 36.89% and the “% inhibition, Replicate B” value was determined as 51.52%.

Consider `CCCCCCNC(=O)C1Cc2c([nH]c3ccc(Br)cc23)C2(CCN(CCc3ccccc3)CC2)N1` (stereo not shown) [TCMDC-141182], for which the “% inhibition, Replicate A” value is 15.53% and the “% inhibition, Replicate B” value stood at 59.10%.

For `CCN(CC)CCN(Cc1ccc(-c2ccc(C(F)(F)F)cc2)cc1)C(=O)Cn1cc(CCCCc2cccc(F)c2F)c(=O)c2ccccc21.O=C(O)C(O)C(O)C(=O)O` [TCMDC-141340], the “% inhibition, Replicate A” value amounted to 60.00% and the “% inhibition, Replicate B” value came to 20.87%.

As for `CC(=O)Nc1cccc(CN(Cc2ccc(-c3ccc(CNCc4cccnc4)cn3)cc2)C(=O)Cc2cccnc2)c1.O=C(O)C(F)(F)F` [TCMDC-141604], the “% inhibition, Replicate A” value is given as 63.32% and the “% inhibition, Replicate B” value worked out at 20.87%.

Turning to `C=Cc1cc(OC)c2c(c1)c(=O)oc1c2cc(OC)c2c(O)ccc([C@H]3O[C@H]([C@H](C)O)[C@H](O)[C@H]3O)c21` [TCMDC-141972], the “% inhibition, Replicate A” value was determined as 89.48% and the “% inhibition, Replicate B” value was 109.41%.

Consider `O=[N+]([O-])c1ccccc1C=NN=c1c2c([nH]c3ccccc13)CCCC2` [TCMDC-142202], for which the “% inhibition, Replicate A” value came to 51.15% and the “% inhibition, Replicate B” value is 30.70%.

Regarding `CCN(CC)CCCC(C)Nc1c(-c2ccc(C)cc2)cnc2ccccc12` (stereo not shown) [TCMDC-142264], the “% inhibition, Replicate A” value stood at 53.92% and the “% inhibition, Replicate B” value came to 8.32%.

Values taken from PMC6753678, “Fueling Open Innovation for Malaria Transmission-Blocking Drugs: Hundreds of Molecules Targeting Early Parasite Mosquito Stages” (Frontiers in Microbiology, 2019).
